Data reported in publication PMC13429874, “ABHD2 activity is not required for the non-genomic action of progesterone on human sperm” (Human Reproduction (Oxford, England), 2026).
“Also recorded” adds a separate entry of the source.

Columns and labels:
[1] = target: T1, full-length human ABHD2 (ABHD2^FL) (Homo sapiens, UniProt P08910); test: ABHD2^FL enzymatic activity assay with 7-HCA substrate; type: biochemical; details: Supplementary Table S2; read-out: IC50 measured in ABHD2^FL in the 7-HCA Assay
T1 construct: TEV site-eGFP-8xHis (C, cleaved yes); made in house; host or cells: SF9 insect cells (baculovirus)
T1 sequence (P08910 1-425): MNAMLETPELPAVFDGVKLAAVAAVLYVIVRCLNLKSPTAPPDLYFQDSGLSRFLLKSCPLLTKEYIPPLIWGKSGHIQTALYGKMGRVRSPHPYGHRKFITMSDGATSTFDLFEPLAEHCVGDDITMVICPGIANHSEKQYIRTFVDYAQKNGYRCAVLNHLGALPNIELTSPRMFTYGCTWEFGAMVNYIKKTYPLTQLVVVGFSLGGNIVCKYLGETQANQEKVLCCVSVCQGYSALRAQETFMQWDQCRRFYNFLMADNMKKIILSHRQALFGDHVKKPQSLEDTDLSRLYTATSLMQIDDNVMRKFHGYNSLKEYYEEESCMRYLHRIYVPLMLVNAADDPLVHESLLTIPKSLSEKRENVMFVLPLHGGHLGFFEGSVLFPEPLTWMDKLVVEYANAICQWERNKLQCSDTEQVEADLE

ABHD2^L33–E425 = target: T2, ABHD2^L33–E425 (Homo sapiens, UniProt P08910); test: Differential scanning fluorimetry (DSF) with purified ABHD2^L33–E425; type: binding
T2 construct: expression for ABHD2 amino acids L33–E425, in which a predicted transmembrane domain (amino acids 1–32) is removed; His6-FLAG (N); made in house; host or cells: E. coli BL21(DE3)-R3-pRARE2
T2 sequence (P08910 33-425): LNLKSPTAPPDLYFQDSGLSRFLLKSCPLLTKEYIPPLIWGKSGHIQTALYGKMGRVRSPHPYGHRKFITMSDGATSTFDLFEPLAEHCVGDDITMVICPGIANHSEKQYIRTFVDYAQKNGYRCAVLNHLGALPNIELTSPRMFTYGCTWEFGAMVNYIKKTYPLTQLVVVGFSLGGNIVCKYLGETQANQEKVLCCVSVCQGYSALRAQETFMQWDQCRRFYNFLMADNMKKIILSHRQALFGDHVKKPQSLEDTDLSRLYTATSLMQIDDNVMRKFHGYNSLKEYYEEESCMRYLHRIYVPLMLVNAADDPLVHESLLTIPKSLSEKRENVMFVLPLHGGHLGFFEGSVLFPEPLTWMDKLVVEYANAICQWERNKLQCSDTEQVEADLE

human ABHD11 = target: T3, human ABHD11 (Homo sapiens, UniProt Q8NFV4); test: ABHD11 colorimetric assay with p-nitrophenyl butyrate; type: biochemical; details: 10 µM compound, 500 µM p-NPB
T3 construct: residues V34—V315 of human ABHD11; His6-TEV site (N); made in house; host or cells: E. coli
T3 sequence (Q8NFV4 25-306 limits assumed): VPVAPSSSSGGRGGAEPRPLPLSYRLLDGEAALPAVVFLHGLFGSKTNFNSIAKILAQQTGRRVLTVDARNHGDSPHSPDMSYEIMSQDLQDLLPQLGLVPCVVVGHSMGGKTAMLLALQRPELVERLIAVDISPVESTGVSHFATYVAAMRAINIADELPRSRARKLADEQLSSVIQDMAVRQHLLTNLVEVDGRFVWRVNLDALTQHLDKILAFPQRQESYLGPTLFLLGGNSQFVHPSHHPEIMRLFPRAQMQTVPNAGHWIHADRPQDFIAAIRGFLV
Experimental: Enzymatic activities of ABHD10 and ABHD11 were measured in a colorimetric assay using p-nitrophenyl butyrate (p-NPB) as substrate. Enzymes at 1500 nM ABHD10 and 125 nM ABHD11 in 20 mM HEPES pH 7.5, 150 mM NaCl, and 2% (v/v) DMSO were pre-incubated in 96-well plates with 50 µM test compound for 30 min at 4°C. Plates were then equilibrated at 37°C for 2 min, and reactions were initiated by adding 160 µl of pre-warmed substrate solution (same buffer with 625 µM p-NPB) to a total volume of 200 µl, yielding final assay concentrations of 300 nM ABHD10, 25 nM ABHD11, and 500 µM pNPB. The substrate solution was prepared immediately before addition to the enzyme mixtures. Absorbance at 405 nm was recorded on a SpectraMax iD3 plate reader (Molecular Devices) for 20 min with continuous monitoring at 30 s intervals.

human sperm = test: Sperm hyperactivation assay (CASA); type: cell-based; details: 10 µM compound, 30 min
Experimental: Sperm hyperactivation was assessed in human sperm purified by density gradient centrifugation. Semen samples (n = 7) were allowed to liquefy for 15–30 min at 37°C, and up to 2 ml of liquified semen was layered onto a two-step GM501 gradient system (45%/90%; Gynemed; Sierksdorf, Germany) pre-equilibrated at 37°C. Gradients were centrifuged for 20 min at 400 × g (no break). The 90% pellet was collected, washed in SpermActive medium (Gynemed; composition per manufacturer: NaCl, KCl, MgSO4.7H2O, KH2PO4, 1.77 mM CaCl2.2H2O, D(+)-glucose anhydrous, sodium pyruvate, sodium lactate, EDTA, alanyl-glutamine, essential and non-essential amino acids, 25.71 mM NaHCO3, 15 mM HEPES, 5 g/l human serum albumin, 10 mg/l gentamicin, and phenol red), and incubated for at least 2 h at 37°C, 5% CO2.
For compound testing, sperm suspensions with 7.5 × 10^6 sperm/ml in SpermActive were treated with either DMSO (vehicle) or 10 µM test compound. For basal and induced hyperactivation conditions, DMSO or progesterone (3 µM), respectively, was added. Samples were incubated for 30 min at 37°C, 5% CO2, before motility analysis.
Motility was analyzed using a CASA system (CEROSII^TM Animal Motility, software version 1.16; Hamilton Thorne, Beverly, MA, USA), mounted on an Axiolab 5 microscope (Zeiss, Germany), equipped with a TPi-SX Thermal Plate (Tokai Hit; Shizuoka-ken, Japan) and a JAI CM-040-GE CCD camera (JAI; Tokyo, Japan). Leja slides (20 µm chamber depth; Leja Products B.V., Nieuw-Vennep, The Netherlands) were pre-warmed to 37°C, cleaned with lens paper, and loaded by capillary action with 6 µl sperm suspension; capillary correction was set to 1.3. Sperm tracks were recorded at 37°C using a 10× negative-phase objective, acquiring 60 frames at 60 Hz with 4 ms exposure and gain set to 600. For each sample and condition, 300–500 motile sperm from at least 10 non-overlapping fields were analyzed. Hyperactive sperm were identified using the SORT function with the following Boolean argument: VCL > 150 µm/s and LIN < 50% and ALH > 7 µm. For each sample and condition, the percentage of hyperactive sperm was normalized to the percentage of motile sperm, and the mean of two technical duplicates was reported.
Statistical analysis was performed using GraphPad Prism 10 for Windows (version 10.6.1). Data normality was assessed using Shapiro–Wilk test. Differences between basal and induced hyperactivation were evaluated using a paired t-test, with effective pairing confirmed across all comparisons. P < 0.05 was considered statistically significant.

- IC50 [1]: 1.2 µM
- effect on melting temperature / thermal stability of ABHD2^L33-E425 (DSF), in words (ABHD2^L33–E425; 10 µM compound, 30 min pre-incubation): increased melting temperature
- ΔTm shift for ABHD2^L33-425 determined by DSF (ABHD2^L33–E425; purified protein): 14 °C
- inhibition of ABHD11 (human ABHD11): no detectable inhibition
SMILES: CC1CCCN(C(=O)c2ccccc2C(=O)c2ccccc2)C1 (stereo not drawn) [Compound 4]
- effect on progesterone-induced hyperactivation (human sperm; 3 µM progesterone): not affected
- effect on basal hyperactivation (human sperm): No statistically significant differences; also recorded: did not affect
